# “Also recorded” adds a separate entry of the source. Like-named read-outs stand apart in the source and are kept apart here.
# How the values were obtained:
# [1] = test system: S. flexneri; assay: microbe, parasite or virus in culture; format: cell-based; details: Shigella flexneri
# [2] = test system: B. anthracis Sterne (pXO1+, pXO2−); assay: microbe, parasite or virus in culture; format: cell-based; details: Bacillus anthracis
# [3] = test system: trans-translation; format: biochemical, E. coli; details: 10 μM final concentration; DHFR template lacking the stop codon; tagging efficiency vs no inhibitor control
# [4] = test system: B. subtilis; assay: microbe, parasite or virus in culture; format: cell-based; details: Bacillus subtilis, 24 h, read-out: MIC B. subtilis
# [5] = test system: Auto-luminescent M. tuberculosis (LuxTB); assay: microbe, parasite or virus in culture; format: cell-based; details: Mycobacterium tuberculosis, read-out: IC50 M. tuberculosis
# [6] = test system: HeLa cells; details: human
# [7] = test system: WT+pUTE29 (empty vector); assay: microbe, parasite or virus in culture; format: cell-based, B. anthracis; details: Bacillus anthracis, 24 h, read-out: IC50 WT + pUTE29
# [8] = test system: Mycobacterium smegmatis; assay: microbe, parasite or virus in culture; format: cell-based; details: Mycolicibacterium smegmatis, read-out: MIC Mycobacterium smegmatis
# [9] = test system: S. aureus methicillin-susceptible strain, Newman; format: cell-based
# [10] = test system: WT B. anthracis Sterne; assay: microbe, parasite or virus in culture; format: cell-based; details: Bacillus anthracis, 24 h, read-out: IC50 WT B. anthracis
# [11] = test system: B. anthracis ΔclpX+pclpX; assay: microbe, parasite or virus in culture; format: cell-based; details: Bacillus anthracis, 24 h, read-out: IC50 ΔclpX + pclpX
# [12] = test system: B. anthracis spores; format: cell-based
# [13] = test system: ΔclpX+pUTE29; assay: microbe, parasite or virus in culture; format: cell-based, B. anthracis; details: Bacillus anthracis, 24 h, read-out: IC50 ΔclpX + pUTE29
# [14] = test system: MRSA strain, Sanger 252; format: cell-based, S. aureus
# [15] = test system: B. anthracis ΔclpX; assay: microbe, parasite or virus in culture; format: cell-based; details: Bacillus anthracis, 24 h, read-out: IC50 ΔclpX
# [16] = test system: B. anthracis Sterne; format: cell-based
# [17] = test system: S. flexneri; assay: microbe, parasite or virus in culture; format: cell-based; details: Shigella flexneri, 24 h, read-out: IC50 S. flexneri
# [18] = test system: E. coli TolC mutant; assay: microbe, parasite or virus in culture; format: cell-based; details: Escherichia coli, read-out: MIC E. coil TolC
# [19] = test system: B. anthracis; format: cell-based
# [20] = test system: Wild-type M. tuberculosis; assay: microbe, parasite or virus in culture; format: cell-based; details: Mycobacterium tuberculosis, read-out: MIC against M. tuberculosis
# [21] = read-out: MIC Bacillus anthracis
# [22] = 24 h, read-out: MIC S. flexneri
# [23] = 24 h, read-out: MIC B. anthracis
compound,measurement,setting,value
"CCCn1nnnc1NC(=O)c1ccccc1 [Compound 1, N-(1-propyl-1H-tetrazol-5-y1)benzamide]",MIC,[1]; read-out: MIC S. flexneri,> 500 µM
same,MIC,[2]; read-out: MIC B. anthracis,> 500 µM
"CCCn1nnnc1NC(=O)c1cccc(Br)c1 [Compound 2, 3-bromo-N-(1-propyl-1H-tetrazol-5-yl)benzamide]",MIC,[1]; read-out: MIC S. flexneri,250 µM
same,MIC,[2]; read-out: MIC B. anthracis,> 500 µM
"CCCn1nnnc1NC(=O)c1cccc(F)c1 [Compound 3, 3-fluoro-N-(1-propyl-1H-tetrazol-5-yl)benzamide]",MIC,[1]; read-out: MIC S. flexneri,> 500 µM
same,MIC,[2]; read-out: MIC B. anthracis,> 500 µM
"CCCn1nnnc1NC(=O)c1ccc(N(C)C)cc1 [Compound 4, 4-(dimethylamino)-N-(1-propyl-1H-tetrazol-5-yl)benzamide]",MIC,[1]; read-out: MIC S. flexneri,> 500 µM
same,% inhibition in vitro,[3],74.9%
same,MIC,[2]; read-out: MIC B. anthracis,> 500 µM
"CCCn1nnnc1NC(=O)c1ccc(N(CC)CC)cc1 [Compound 5, 4-(diethylamino)-N-(1-propyl-1H-tetrazol-5-yl)-benzamide]",MIC,[1]; read-out: MIC S. flexneri,> 500 µM
same,MIC,[2]; read-out: MIC B. anthracis,> 500 µM
"CCCn1nnnc1NC(=O)C1CCCCC1 [Compound 7, N-(1-propyl-1H-tetrazol-5-yl)cyclohexane-carboxamide]",MIC,[1]; read-out: MIC S. flexneri,> 500 µM
same,MIC,[2]; read-out: MIC B. anthracis,> 500 µM
"CCCn1nnnc1NC(=O)C1CCCC1 [Compound 8, N-(1-propyl-1H-tetrazol-5-yl)cyclopentane-carboxamide]",MIC,[1]; read-out: MIC S. flexneri,> 500 µM
same,MIC,[2]; read-out: MIC B. anthracis,> 500 µM
O=C(Nc1nnn[nH]1)c1cccc(Cl)c1 [Compound 9],% inhibition in vitro,[3],78.9%
"O=C(Nc1ccccc1)c1cccc(Cl)c1 [Compound 10, 3-chloro-N-phenylbenzamide]",MIC,[1]; read-out: MIC S. flexneri,> 500 µM
same,% inhibition in vitro,[3],68.1%
same,MIC,[2]; read-out: MIC B. anthracis,> 500 µM
"O=C(Nc1ccncc1)c1cccc(Cl)c1 [Compound 11, 3-chloro-N-(pyridin-4-yl)benzamide]",MIC,[1]; read-out: MIC S. flexneri,500 µM
same,% inhibition in vitro,[3],57.9%
same,MIC,[2]; read-out: MIC B. anthracis,> 500 µM
"O=C(NC1CCCCC1)c1cccc(Cl)c1 [Compound 12, 3-chloro-N-cyclohexylbenzamide]",MIC,[1]; read-out: MIC S. flexneri,> 500 µM
same,% inhibition in vitro,[3],44.6%
same,MIC,[2]; read-out: MIC B. anthracis,> 500 µM
"O=C(NC1CCCC1)c1cccc(Cl)c1 [Compound 13, 3-chloro-N-cyclopentylbenzamide]",MIC,[1]; read-out: MIC S. flexneri,> 500 µM
same,% inhibition in vitro,[3],71.6%
same,MIC,[2]; read-out: MIC B. anthracis,> 500 µM
CS(=O)(=O)NCCn1nnnc1NC(=O)c1cccc(Cl)c1 [Compound 14],% inhibition in vitro,[3],47.8%
"O=C(Nc1nnnn1CCNS(=O)(=O)c1ccccc1)c1cccc(Cl)c1 [Compound 16, 3-chloro-N-(1-(2-(phenylsulfonamido)ethyl)-1H-tetrazol-5-yl)benzamide]",% inhibition in vitro,[3],37.0%
same,MIC,[2]; [21],400 µM
"NCCn1nnnc1NC(=O)c1cccc(Cl)c1 [Compound D, N-(1-(2-aminoethyl)-1H-tetrazol-5-yl)-3-chlorobenzamide]",MIC,[1]; [22],> 200 µM
same,% inhibition in vitro,[3],52.3%
same,MIC,[2]; [23],> 200 µM
same,MIC,[4],> 200 µM
"CCCn1nnnc1NC(=O)c1cccc(Cl)c1 [Compound F2, reference compound]",MIC,[1]; [22],7.8 µM
same,MIC,[1]; read-out: MIC S. flexneri,3.13 µM
same,MIC,[1]; read-out: MIC Shigella flexneri,3.1 µM
same,IC50,[5]; 48 h,292 µM
same,IC50,[5]; 72 h,226 µM
same,IC50,[5]; 96 h,115 µM
same,Dose at which cytotoxicity in mammalian cells is seen,[6],500 to 1000 µM
same,IC50,[7],27.5 µM
same,MIC,[8],25 µM
same,% inhibition in vitro,[3],88.0%
same,Survival of S. aureus Newman,[9],only slightly reduced; also recorded: No colonies were recovered
same,IC50,[10],17.6 µM
same,IC50,[11],14.8 µM
same,Vegetative cells from spores (inhibition of spore germination),[12],No vegetative cells were observed
same,IC50,[13],22.3 µM
same,Bacterial survival (cfu/ml) of MRSA,[14],significantly reduced bacterial survival in a synergistic manner
same,Direct antimicrobial activity against MRSA Sanger 252,[14],direct antimicrobial activity
same,Reduction of survival of MRSA Sanger 252,[14],"at least 10,000 fold"
same,Survival of MRSA Sanger 252,[14],only slightly reduced
same,MIC,[2]; [23],31.2 µM
same,MIC,[2]; read-out: MIC B. anthracis,25 µM
same,MIC,[2]; [21],25 µM
same,IC50,[15],27 µM
same,Bacterial survival (cfu/ml) of B. anthracis Sterne,[16],significantly reduced bacterial survival in a synergistic manner
same,Direct antimicrobial activity against B. anthracis Sterne,[16],direct antimicrobial activity
same,Survival of B. anthracis Sterne vs vehicle control,[16],negligible effect on survival
same,IC50,[17],5.95 µM
same,MIC,[4],26.1 µM
same,MIC,[18],12.5 µM
same,Killing of B. anthracis in human whole blood vs vehicle control,[19],significantly enhanced killing
"CN(C)c1cccc2c(S(=O)(=O)NCCn3nnnc3NC(=O)c3cccc(Cl)c3)cccc12 [Dansyl-F2, 3-chloro-N-(1-(2-(5-(dimethylamino)naphthalene-1-sulfonamido)ethyl)-1H-tetrazol-5-yl)benzamide]",MIC,[1]; [22],> 200 µM
same,IC50,[5]; 48 h,181 µM
same,IC50,[5]; 72 h,100 µM
same,IC50,[5]; 96 h,96.4 µM
same,IC50,[7],9.88 µM
same,% inhibition in vitro,[3],89.1%
same,IC50,[10],5.28 µM
same,IC50,[11],6.22 µM
same,Vegetative cells from spores (inhibition of spore germination),[12],No vegetative cells were observed
same,IC50,[13],6.28 µM
same,MIC,[2]; [23],7.8 µM
same,MIC,[2]; [21],5.3 µM
same,IC50,[15],5.93 µM
same,IC50,[17],> 200 µM
same,MIC,[4],13.3 µM
same,MIC,[18],25 µM
same,MIC,[20],~50 µM
CCCCCCCCCC(=O)N[C@@H](Cc1c[nH]c2ccccc12)C(=O)N[C@H](CC(N)=O)C(=O)N[C@@H](CC(=O)O)C(=O)N[C@@H]1C(=O)NCC(=O)N[C@@H](CCCN)C(=O)N[C@@H](CC(=O)O)C(=O)N[C@H](C)C(=O)N[C@@H](CC(=O)O)C(=O)NCC(=O)N[C@H](CO)C(=O)N[C@@H]([C@H](C)CC(=O)O)C(=O)N[C@@H](CC(=O)c2ccccc2N)C(=O)O[C@@H]1C [daptomycin],Effect on parental and complemented B. anthracis strains,[16],not significantly affected
LL-37,Survival of S. aureus Newman,[9],only slightly reduced
same,Survival of MRSA Sanger 252,[14],only slightly reduced
same,Survival of B. anthracis Sterne vs vehicle control,[16],negligible effect on survival

# — US8975288B2 (priority 2013, dated 2015)
